Measurements reported in ChEMBL document CHEMBL1133312, “S-nitrosothiols as novel, reversible inhibitors of human rhinovirus 3C protease” (Bioorg Med Chem Lett, 2000).
Square brackets hold non-standard residues; d marks the D form. Peptide text beside a SMILES is read from it. Cys(NO) = N[C@@H](CSN=O)C(=O)O

How the values were obtained:
[1] = tested on: rhinovirus B14; assay: Compound was evaluated for the inactivation of HRV 14 3C protease activity expressed as kinact; assay type: functional, human rhinovirus type 14
[2] = tested on: rhinovirus B14; assay: Compound was evaluated for the inactivation of HRV 14 3C protease activity expressed as KI; assay type: functional, human rhinovirus type 14

## N[C@@H](CCC(=O)N[C@@H](CSN=O)C(=O)NCC(=O)O)C(=O)O [S-NITROSOGLUTATHIONE]
[1]
  K inact: 0.237 min⁻¹
[2]
  Ki: 360 µM

## CC(=O)N[C@@H](CCC(=O)O)C(=O)N[C@@H](C)C(=O)N[C@@H](CC(C)C)C(=O)N[C@@H](Cc1ccccc1)C(=O)N[C@@H](CCC(N)=O)C(=O)N[C@@H](CSN=O)C(=O)NCC(=O)O (Ac-EALFQ[Cys(NO)]G-OH)
[1]
  K inact: 0.107 min⁻¹
[2]
  Ki: 20 µM

## CC(=O)N[C@@H](C(=O)NC1C(O)OC(CO)C(O)C1O)C(C)(C)SN=O (stereo not given in full)
[1]
  K inact: 0.982 min⁻¹
[2]
  Ki: 5040 µM

## CC(=O)N[C@@H](C(=O)O)C(C)(C)SN=O
[1]
  K inact: 0.243 min⁻¹
[2]
  Ki: 1860 µM

## C[C@@H](CSN=O)C(=O)N1CCC[C@H]1C(=O)O
[1]
  K inact: 0.457 min⁻¹
[2]
  Ki: 2110 µM
